Assay results published in patent US20200155650A1, “Combination treatment of NAFLD and NASH” (CymaBay Therapeutics, Inc., priority 2018, published 2020).

How the values were obtained:
PPARα = target: T1, PPARα (Homo sapiens, UniProt Q07869); settings: cited from earlier work
T1 sequence (Q07869 1-468): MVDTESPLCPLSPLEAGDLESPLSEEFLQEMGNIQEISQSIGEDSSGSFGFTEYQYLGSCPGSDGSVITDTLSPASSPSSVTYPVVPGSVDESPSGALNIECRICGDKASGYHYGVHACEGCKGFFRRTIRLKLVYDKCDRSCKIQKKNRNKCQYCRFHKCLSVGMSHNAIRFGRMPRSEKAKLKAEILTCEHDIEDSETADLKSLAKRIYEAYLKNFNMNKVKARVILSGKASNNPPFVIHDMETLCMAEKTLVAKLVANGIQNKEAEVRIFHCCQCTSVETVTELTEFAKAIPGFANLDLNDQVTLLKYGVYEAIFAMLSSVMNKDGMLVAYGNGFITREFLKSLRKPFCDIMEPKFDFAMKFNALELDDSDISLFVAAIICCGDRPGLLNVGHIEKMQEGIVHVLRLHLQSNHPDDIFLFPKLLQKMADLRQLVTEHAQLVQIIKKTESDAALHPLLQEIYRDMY

[1] = system: Alms1 mutant (fozlfoz) mice; settings: 10 mg/Kg by gavage for 8 weeks, cited from earlier work
[2] = system: subjects with liver biopsy-proven NASH; assay: Example 3, clinical, single agent seladelpar in biopsy-proven NASH; assay type: in vivo, human; settings: 10, 20, and 50 mg/day for 52 weeks
Experimental: One hundred seventy-five subjects with liver biopsy-proven NASH are treated with doses of 10, 20, and 50 mg/day, or placebo (2:2:2:1 randomization) for 52 weeks. Subjects are permitted their usual other medications (e.g. antidiabetic medications such as metformin or […]) but not glitazones, PPAR agonists, OCA, or similar medications. […] The primary efficacy outcome is the change in baseline in liver fat content at 12 weeks, as measured by magnetic resonance imaging-derived proton density fat fraction (MRI-PDFF). Other outcome measures include histological improvement in NASH and fibrosis, assessed by comparing liver biopsy samples at baseline and at 52 weeks after the start of dosing; MRI-PDFF at 26 and 52 weeks; and measurements of total cholesterol, HDL-C, LDL-C, VLDL-C, TGs, apoB, and liver transaminases. The subjects also maintain health diaries, which are reviewed at each visit.

CSc1ccc(C(=O)/C=C/c2cc(C)c(OC(C)(C)C(=O)O)c(C)c2)cc1 [elafibranor]
EC50 (PPARα): 6 nM

CCO[C@H](COc1ccc(C(F)(F)F)cc1)CSc1ccc(OCC(=O)O)c(C)c1 [Seladelpar, (R)-2-(4-((2-ethoxy-3-(4-(trifluoromethyl)phenoxy)propyl)-sulfanyl)-2-methylphenoxy)acetic acid]
mean nonalcoholic fatty liver disease activity score (NAS) ([1]; vehicle 6.9): 3.13 | reduction of serum alanine aminotransferase ([1]; vehicle 300-600 U/L): 50% | hyperglycemia, hyperinsulinemia, and glucose disposal [1]: normalized | improvement in disease (MRI-PDFF, liver biopsy, NAS score) [2]: dose-related improvement in their disease
